Measurements published in patent publication US10294202B2, “Pyrrolidinones as herbicides” (FMC Corporation, priority 2013, dated 2019).

What was measured:
Assay in all cases: Test D pre-/postemergence herbicide test
barley, spring = type: in vivo, Hordeum vulgare; details: for Plant response rating: Barley, Spring, scale 0 to 100; for Plant response rating, Barley, Spring: scale 0 to 100 (0 no effect, 100 complete control)
Description: (§1) Seeds of plant species selected from bluegrass (annual bluegrass, Poa annua), blackgrass (Alopecurus myosuroides), canarygrass (littleseed canarygrass, Phalaris minor), chickweed (common chickweed, Stellaria media), galium (catchweed bedstraw, Galium aparine), bromegrass, downy (downy bromegrass, Bromus tectorum), field poppy (Papaver rhoeas), field violet (Viola arvensis), foxtail, green (green foxtail, Setaria viridis), deadnettle (henbit deadnettle, Lamium amplexicaule), ryegrass, Italian (Italian ryegrass, Lolium multiflorum), kochia (Kochia scoparia), lambsquarters (Chenopodium album), oilseed rape (Brassica napus), pigweed (Amaranthus retroflexus), chamomile (scentless chamomile, Matricaria inodora), Russian thistle (Salsola kali), speedwell (bird's-eye speedwell, Veronica persica), barley, spring (spring barley, Hordeum vulgare), wheat, spring (spring wheat, Triticum aestivum), buckwheat, wild (wild buckwheat, Polygonum convolvulus), mustard, wild (wild mustard, Sinapis arvensis), oat, wild (wild oat, Avena fatua), radish, wild (wild radish, Raphanus raphanistrum), […]), barley, winter (winter barley, Hordeum vulgare), and wheat, winter (winter wheat, Triticum aestivum) were planted into a silt loam soil and treated preemergence with test chemicals formulated in a non-phytotoxic solvent mixture which included a surfactant. At the same time, these species were planted in pots containing Redi-Earth® planting medium (Scotts Company, 14111 Scottslawn Road, Marysville, Ohio 43041) comprising spaghnum peat moss, vermiculite, wetting agent and starter nutrients and treated with postemergence applications of the test chemicals formulated in the same manner. Plants ranged in height from 2 to 18 cm (1- to 4-leaf stage). Treated plants and controls were maintained in a controlled growth environment for 7 to 21 days after which time all species were compared to controls and visually evaluated. Plant response ratings, summarized in Table D, are based on a scale of 0 to 100 where 0 is no effect and 100 is complete control. A dash (-) response means no test result.

barley, winter = type: in vivo, Hordeum vulgare; details: for Plant response rating: Barley, Winter, scale 0 to 100; for Plant response rating, Barley, Winter: scale 0 to 100 (0 no effect, 100 complete control)
Description: as §1

blackgrass = type: in vivo, Alopecurus myosuroides; details: for Plant response rating: Blackgrass, scale 0 to 100; for Plant response rating, Blackgrass: scale 0 to 100 (0 no effect, 100 complete control)
Description: as §1

bluegrass = type: in vivo, Poa annua; details: for Plant response rating: Bluegrass, scale 0 to 100; for Plant response rating, Bluegrass: scale 0 to 100 (0 no effect, 100 complete control)
Description: as §1

ryegrass, Italian = type: in vivo, Lolium multiflorum; details: for Plant response rating: Postemergence, Ryegrass, Italian, scale 0 to 100; for Plant response rating, Ryegrass, Italian: Preemergence, scale 0 to 100 (0 no effect, 100 complete control)
Description: as §1

field poppy = type: in vivo, Papaver rhoeas; details: for Plant response rating: Field Poppy, scale 0 to 100; for Plant response rating, Field Poppy: scale 0 to 100 (0 no effect, 100 complete control)
Description: as §1

## O=C1NCC(c2ccc(F)c(F)c2)C1C(=O)Nc1cccc(F)c1 (racemic) [Compound 12]
barley, spring; Postemergence, 16 g ai/ha
  Plant response rating: 0
barley, spring; Postemergence, 31 g ai/ha
  Plant response rating: 0
barley, spring; Postemergence, 62 g ai/ha
  Plant response rating: 5
barley, spring; Postemergence, 125 g ai/ha
  Plant response rating: 5
barley, spring; Postemergence, 250 g ai/ha
  Plant response rating: 5
barley, spring; Preemergence, 31 g ai/ha
  Plant response rating, Barley, Spring: 0
barley, spring; Preemergence, 62 g ai/ha
  Plant response rating, Barley, Spring: 0
barley, spring; Preemergence, 16 g ai/ha
  Plant response rating, Barley, Spring: 0
barley, spring; Preemergence, 125 g ai/ha
  Plant response rating: 0
barley, spring; Preemergence, 250 g ai/ha
  Plant response rating: 0
barley, winter; Postemergence, 16 g ai/ha
  Plant response rating: 0
barley, winter; Postemergence, 31 g ai/ha
  Plant response rating: 0
barley, winter; Postemergence, 62 g ai/ha
  Plant response rating: 0
barley, winter; Postemergence, 125 g ai/ha
  Plant response rating: 0
barley, winter; Postemergence, 250 g ai/ha
  Plant response rating: 0
barley, winter; Preemergence, 31 g ai/ha
  Plant response rating, Barley, Winter: 0
barley, winter; Preemergence, 62 g ai/ha
  Plant response rating, Barley, Winter: 0
barley, winter; Preemergence, 16 g ai/ha
  Plant response rating, Barley, Winter: 0
barley, winter; Preemergence, 125 g ai/ha
  Plant response rating: 0
barley, winter; Preemergence, 250 g ai/ha
  Plant response rating: 0
blackgrass; Postemergence, 16 g ai/ha
  Plant response rating: 5
blackgrass; Postemergence, 31 g ai/ha
  Plant response rating: 10
blackgrass; Postemergence, 62 g ai/ha
  Plant response rating: 10
blackgrass; Postemergence, 125 g ai/ha
  Plant response rating: 15
blackgrass; Postemergence, 250 g ai/ha
  Plant response rating: 20
blackgrass; Preemergence, 31 g ai/ha
  Plant response rating, Blackgrass: 0
blackgrass; Preemergence, 62 g ai/ha
  Plant response rating, Blackgrass: 0
blackgrass; Preemergence, 16 g ai/ha
  Plant response rating, Blackgrass: 0
blackgrass; Preemergence, 125 g ai/ha
  Plant response rating: 0
blackgrass; Preemergence, 250 g ai/ha
  Plant response rating: 0
bluegrass; Postemergence, 16 g ai/ha
  Plant response rating: 0
bluegrass; Postemergence, 31 g ai/ha
  Plant response rating: 0
bluegrass; Postemergence, 62 g ai/ha
  Plant response rating: 0
bluegrass; Postemergence, 125 g ai/ha
  Plant response rating: 10
bluegrass; Postemergence, 250 g ai/ha
  Plant response rating: 10
bluegrass; Preemergence, 31 g ai/ha
  Plant response rating, Bluegrass: 0
bluegrass; Preemergence, 62 g ai/ha
  Plant response rating, Bluegrass: 0
bluegrass; Preemergence, 16 g ai/ha
  Plant response rating, Bluegrass: 0
bluegrass; Preemergence, 125 g ai/ha
  Plant response rating: 20
bluegrass; Preemergence, 250 g ai/ha
  Plant response rating: 40
ryegrass, Italian; 16 g ai/ha
  Plant response rating: 0
  Plant response rating, Ryegrass, Italian: 0
ryegrass, Italian; 31 g ai/ha
  Plant response rating: 0
  Plant response rating, Ryegrass, Italian: 0
ryegrass, Italian; 62 g ai/ha
  Plant response rating: 0
  Plant response rating, Ryegrass, Italian: 0
ryegrass, Italian; 125 g ai/ha
  Plant response rating: 10
  Plant response rating, Ryegrass, Italian: 0
ryegrass, Italian; 250 g ai/ha
  Plant response rating: 15
  Plant response rating, Ryegrass, Italian: 0
Field poppy; Postemergence, 16 g ai/ha
  Plant response rating: 0
Field poppy; Postemergence, 31 g ai/ha
  Plant response rating: 0
Field poppy; Postemergence, 62 g ai/ha
  Plant response rating: 50
Field poppy; Postemergence, 125 g ai/ha
  Plant response rating: 60
Field poppy; Postemergence, 250 g ai/ha
  Plant response rating: 80
Field poppy; Preemergence, 31 g ai/ha
  Plant response rating, Field Poppy: 0
Field poppy; Preemergence, 62 g ai/ha
  Plant response rating, Field Poppy: 0
Field poppy; Preemergence, 16 g ai/ha
  Plant response rating, Field Poppy: 0
Field poppy; Preemergence, 125 g ai/ha
  Plant response rating: 0
Field poppy; Preemergence, 250 g ai/ha
  Plant response rating: 0

## O=C1NCC(c2cc(F)c(F)c(F)c2)C1C(=O)Nc1ccccc1C(F)(F)F (racemic) [Compound 33]
barley, spring; Postemergence, 16 g ai/ha
  Plant response rating: 0
barley, spring; Postemergence, 31 g ai/ha
  Plant response rating: 0
barley, spring; Postemergence, 62 g ai/ha
  Plant response rating: 0
barley, spring; Postemergence, 125 g ai/ha
  Plant response rating: 0
barley, spring; Postemergence, 250 g ai/ha
  Plant response rating: 0
barley, winter; Postemergence, 16 g ai/ha
  Plant response rating: 0
barley, winter; Postemergence, 31 g ai/ha
  Plant response rating: 0
barley, winter; Postemergence, 62 g ai/ha
  Plant response rating: 0
barley, winter; Postemergence, 125 g ai/ha
  Plant response rating: 0
barley, winter; Postemergence, 250 g ai/ha
  Plant response rating: 0
blackgrass; Postemergence, 16 g ai/ha
  Plant response rating: 0
blackgrass; Postemergence, 31 g ai/ha
  Plant response rating: 0
blackgrass; Postemergence, 62 g ai/ha
  Plant response rating: 0
blackgrass; Postemergence, 125 g ai/ha
  Plant response rating: 0
blackgrass; Postemergence, 250 g ai/ha
  Plant response rating: 0
bluegrass; Postemergence, 16 g ai/ha
  Plant response rating: 0
bluegrass; Postemergence, 31 g ai/ha
  Plant response rating: 0
bluegrass; Postemergence, 62 g ai/ha
  Plant response rating: 0
bluegrass; Postemergence, 125 g ai/ha
  Plant response rating: 0
bluegrass; Postemergence, 250 g ai/ha
  Plant response rating: 0
ryegrass, Italian; 16 g ai/ha
  Plant response rating: 0
ryegrass, Italian; 31 g ai/ha
  Plant response rating: 0
ryegrass, Italian; 62 g ai/ha
  Plant response rating: 0
ryegrass, Italian; 125 g ai/ha
  Plant response rating: 0
ryegrass, Italian; 250 g ai/ha
  Plant response rating: 0
Field poppy; Postemergence, 16 g ai/ha
  Plant response rating: 0
Field poppy; Postemergence, 31 g ai/ha
  Plant response rating: 0
Field poppy; Postemergence, 62 g ai/ha
  Plant response rating: 0
Field poppy; Postemergence, 125 g ai/ha
  Plant response rating: 0
Field poppy; Postemergence, 250 g ai/ha
  Plant response rating: 0

## O=C1NCC(c2cccc(C(F)(F)F)c2)C1C(=O)Nc1cccc(F)c1F (stereo not drawn) [Compound 241]
barley, spring; Preemergence, 31 g ai/ha
  Plant response rating, Barley, Spring: 0
barley, spring; Preemergence, 62 g ai/ha
  Plant response rating, Barley, Spring: 10
barley, spring; Preemergence, 125 g ai/ha
  Plant response rating, Barley, Spring: 20
barley, spring; Preemergence, 250 g ai/ha
  Plant response rating: 35
barley, winter; Preemergence, 31 g ai/ha
  Plant response rating, Barley, Winter: 10
barley, winter; Preemergence, 62 g ai/ha
  Plant response rating, Barley, Winter: 10
barley, winter; Preemergence, 125 g ai/ha
  Plant response rating, Barley, Winter: 30
barley, winter; Preemergence, 250 g ai/ha
  Plant response rating: 65
blackgrass; Preemergence, 31 g ai/ha
  Plant response rating, Blackgrass: 20
blackgrass; Preemergence, 62 g ai/ha
  Plant response rating, Blackgrass: 55
blackgrass; Preemergence, 125 g ai/ha
  Plant response rating, Blackgrass: 50
blackgrass; Preemergence, 250 g ai/ha
  Plant response rating: 75
bluegrass; Preemergence, 31 g ai/ha
  Plant response rating, Bluegrass: 15
bluegrass; Preemergence, 62 g ai/ha
  Plant response rating, Bluegrass: 15
bluegrass; Preemergence, 125 g ai/ha
  Plant response rating, Bluegrass: 45
bluegrass; Preemergence, 250 g ai/ha
  Plant response rating: 70
ryegrass, Italian; 31 g ai/ha
  Plant response rating, Ryegrass, Italian: 15
ryegrass, Italian; 62 g ai/ha
  Plant response rating, Ryegrass, Italian: 20
ryegrass, Italian; 125 g ai/ha
  Plant response rating, Ryegrass, Italian: 20
ryegrass, Italian; 250 g ai/ha
  Plant response rating, Ryegrass, Italian: 50
Field poppy; Preemergence, 31 g ai/ha
  Plant response rating, Field Poppy: 90
Field poppy; Preemergence, 62 g ai/ha
  Plant response rating, Field Poppy: 95
Field poppy; Preemergence, 125 g ai/ha
  Plant response rating, Field Poppy: 95
Field poppy; Preemergence, 250 g ai/ha
  Plant response rating: 100
